Data as given in ChEMBL document CHEMBL1909046, “DrugMatrix in vitro pharmacology data”.

What was measured:
[1] = molecular target: T1, 5-hydroxytryptamine receptor 2C (Homo sapiens, UniProt P28335); assay: DRUGMATRIX: Serotonin (5-Hydroxytryptamine) 5-HT2C radioligand binding (ligand: [3H] Mesulergine); assay type: cell membranes, CHO-K1, Membrane; settings: cho-k1; Not Active = under 50% inhibition at 10 µM
T1 sequence (P28335 whole entry): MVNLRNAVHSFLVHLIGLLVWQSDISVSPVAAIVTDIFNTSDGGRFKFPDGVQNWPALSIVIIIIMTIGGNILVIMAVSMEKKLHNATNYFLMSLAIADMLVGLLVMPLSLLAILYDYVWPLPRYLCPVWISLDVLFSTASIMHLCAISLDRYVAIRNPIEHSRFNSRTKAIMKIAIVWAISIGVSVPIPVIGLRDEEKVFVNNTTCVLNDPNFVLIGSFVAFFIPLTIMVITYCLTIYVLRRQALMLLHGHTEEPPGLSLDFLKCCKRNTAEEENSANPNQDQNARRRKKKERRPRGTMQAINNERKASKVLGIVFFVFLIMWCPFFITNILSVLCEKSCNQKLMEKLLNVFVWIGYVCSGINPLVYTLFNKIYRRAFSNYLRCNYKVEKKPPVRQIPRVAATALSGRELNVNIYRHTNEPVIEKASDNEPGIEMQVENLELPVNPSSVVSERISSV

Mu-type opioid receptor = Mu-type opioid receptor (Homo sapiens, UniProt P35372); assay: DRUGMATRIX: Opiate mu (OP3, MOP) radioligand binding (ligand: [3H] Diprenorphine); assay type: cell membranes, CHO-K1, Membrane; settings: cho-k1; Not Active = under 50% inhibition at 10 µM
Chain of Mu-type opioid receptor (P35372 whole entry): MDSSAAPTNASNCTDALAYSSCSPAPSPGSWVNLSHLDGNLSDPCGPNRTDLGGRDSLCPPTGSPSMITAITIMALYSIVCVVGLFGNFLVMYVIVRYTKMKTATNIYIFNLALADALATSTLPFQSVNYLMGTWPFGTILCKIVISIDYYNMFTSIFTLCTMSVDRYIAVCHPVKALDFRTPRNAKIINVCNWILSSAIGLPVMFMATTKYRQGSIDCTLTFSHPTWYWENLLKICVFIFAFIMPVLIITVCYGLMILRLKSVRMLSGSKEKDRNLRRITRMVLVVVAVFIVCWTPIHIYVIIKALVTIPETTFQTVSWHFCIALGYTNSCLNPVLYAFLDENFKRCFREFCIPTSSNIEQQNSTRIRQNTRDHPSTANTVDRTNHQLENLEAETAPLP

[2] = DRUGMATRIX: Leukotriene, BLT (LTB4) radioligand binding (ligand: [3H]LTB4); assay type: cell membranes, Membrane; settings: u-937; Not Active = under 50% inhibition at 10 µM
Insulin receptor = Insulin receptor (Rattus norvegicus, UniProt P15127); assay type: cell membranes, Wistar, Liver, Membrane; also: in other assays of this panel Not Active means under 50% inhibition at 10 µM
Chain of Insulin receptor (P15127 27-759 limits assumed): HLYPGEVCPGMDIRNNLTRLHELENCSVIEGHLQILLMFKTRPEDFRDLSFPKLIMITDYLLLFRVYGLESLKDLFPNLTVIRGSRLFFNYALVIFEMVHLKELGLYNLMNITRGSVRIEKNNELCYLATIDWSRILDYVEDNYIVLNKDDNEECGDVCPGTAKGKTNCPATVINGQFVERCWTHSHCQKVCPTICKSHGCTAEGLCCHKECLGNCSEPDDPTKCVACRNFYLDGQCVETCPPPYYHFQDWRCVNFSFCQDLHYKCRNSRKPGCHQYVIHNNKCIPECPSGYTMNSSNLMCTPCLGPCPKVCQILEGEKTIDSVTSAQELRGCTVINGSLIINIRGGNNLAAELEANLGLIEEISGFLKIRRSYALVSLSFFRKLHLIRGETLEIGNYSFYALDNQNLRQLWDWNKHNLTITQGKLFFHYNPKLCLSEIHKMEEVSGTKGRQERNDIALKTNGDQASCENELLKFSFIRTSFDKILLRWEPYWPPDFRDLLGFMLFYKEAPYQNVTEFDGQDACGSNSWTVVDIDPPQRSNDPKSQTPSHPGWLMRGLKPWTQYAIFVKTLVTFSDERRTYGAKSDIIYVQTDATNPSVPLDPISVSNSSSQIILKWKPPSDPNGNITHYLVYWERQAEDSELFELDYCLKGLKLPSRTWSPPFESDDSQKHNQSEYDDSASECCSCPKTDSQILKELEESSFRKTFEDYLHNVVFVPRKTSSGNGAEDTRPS
Chain of Insulin receptor (P15127 764-1383 limits assumed): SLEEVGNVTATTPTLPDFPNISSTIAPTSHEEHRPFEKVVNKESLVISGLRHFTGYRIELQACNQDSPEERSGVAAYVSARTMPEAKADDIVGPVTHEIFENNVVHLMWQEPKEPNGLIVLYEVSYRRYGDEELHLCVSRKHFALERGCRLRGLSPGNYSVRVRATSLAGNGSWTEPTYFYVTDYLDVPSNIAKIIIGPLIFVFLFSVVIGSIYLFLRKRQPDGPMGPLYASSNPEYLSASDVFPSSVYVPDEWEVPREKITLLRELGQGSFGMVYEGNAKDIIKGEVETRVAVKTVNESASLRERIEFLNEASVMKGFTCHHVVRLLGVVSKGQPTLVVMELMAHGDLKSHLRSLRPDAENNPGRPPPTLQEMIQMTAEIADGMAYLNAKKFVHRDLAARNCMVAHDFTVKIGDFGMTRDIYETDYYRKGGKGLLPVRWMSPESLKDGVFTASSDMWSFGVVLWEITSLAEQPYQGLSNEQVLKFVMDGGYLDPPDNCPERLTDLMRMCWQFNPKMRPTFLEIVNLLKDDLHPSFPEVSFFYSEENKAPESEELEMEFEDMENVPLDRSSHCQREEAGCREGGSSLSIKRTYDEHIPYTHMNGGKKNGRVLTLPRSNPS

[3] = DRUGMATRIX: Phorbol Ester radioligand binding (ligand: [3H] PDBu); assay type: cell membranes, Mus musculus, ICR, Brain, Membrane; settings: Not Active = under 50% inhibition at 10 µM
[4] = DRUGMATRIX: Serotonin (5-Hydroxytryptamine) 5-HT3 radioligand binding (ligand: [3H] GR-65630); assay type: cell membranes, Membrane; settings: hek293; Not Active = under 50% inhibition at 10 µM

Cc1c(C)c2c(c(C)c1O)CC[C@@](C)(CCC[C@H](C)CCC[C@H](C)CCCC(C)C)O2 [ALPHA-TOCOPHEROL]
Not Active: IC50 [1] | IC50 (Mu-type opioid receptor) | IC50 [2] | Ki [2] | IC50 (Insulin receptor) | IC50 [3] | Ki [3] | IC50 [4] | Ki [4]

CN(C)c1nc(N(C)C)nc(N(C)C)n1 [ALTRETAMINE]
Not Active: IC50 [1] | IC50 (Mu-type opioid receptor) | IC50 [2] | Ki [2] | IC50 (Insulin receptor) | IC50 [3] | Ki [3] | IC50 [4] | Ki [4]

Nc1c(Br)cc(Br)cc1CN[C@H]1CC[C@H](O)CC1 [AMBROXOL]
Not Active: IC50 [1] | IC50 (Mu-type opioid receptor) | IC50 [2] | Ki [2] | IC50 (Insulin receptor) | IC50 [3] | Ki [3] | IC50 [4] | Ki [4]

NCCCCCC(=O)O [AMINOCAPROIC ACID]
Not Active: IC50 [1] | IC50 (Mu-type opioid receptor) | IC50 [2] | Ki [2] | IC50 (Insulin receptor) | IC50 [3] | Ki [3] | IC50 [4] | Ki [4]

CCC1(c2ccc(N)cc2)CCC(=O)NC1=O (stereo unspecified) [AMINOGLUTETHIMIDE]
Not Active: IC50 [1] | IC50 (Mu-type opioid receptor) | IC50 [2] | Ki [2] | IC50 (Insulin receptor) | IC50 [3] | Ki [3] | IC50 [4] | Ki [4]

CCOC(=O)C1=C(COCCN)NC(C)=C(C(=O)OC)C1c1ccccc1Cl (stereo unspecified) [AMLODIPINE]
Not Active: IC50 [1] | IC50 (Mu-type opioid receptor) | IC50 [2] | Ki [2] | IC50 (Insulin receptor) | IC50 [3] | Ki [3] | IC50 [4] | Ki [4]

Nc1ncn([C@@H]2O[C@H](CO)[C@@H](O)[C@H]2O)c(=O)n1 [AZACITIDINE]
Not Active: IC50 [1] | IC50 (Mu-type opioid receptor) | IC50 [2] | Ki [2] | IC50 (Insulin receptor) | IC50 [3] | Ki [3] | IC50 [4] | Ki [4]

CN(C)C(=O)Oc1cc(OC(=O)N(C)C)cc(C(O)CNC(C)(C)C)c1 (stereo unspecified) [BAMBUTEROL]
Not Active: IC50 [1] | IC50 (Mu-type opioid receptor) | IC50 [2] | Ki [2] | IC50 (Insulin receptor) | IC50 [3] | Ki [3] | IC50 [4] | Ki [4]

c1ccc2c(c1)c1cccc3ccc4cccc2c4c31 [BENZO[E]PYRENE]
Not Active: IC50 [1] | IC50 (Mu-type opioid receptor) | IC50 [2] | Ki [2] | IC50 (Insulin receptor) | IC50 [3] | Ki [3] | IC50 [4] | Ki [4]
